Reference: publication PMC4858151, “Phosphorylation of Human Choline Kinase Beta by Protein Kinase A: Its Impact on Activity and Inhibition” (PLoS ONE, 2016)
pKi: −log10 of the molar value.

Target: T1, choline kinase beta (CKβ) (Homo sapiens, UniProt Q9Y259)
T1 construct: gene CHKB; recombinant CKβ, in vitro phosphorylated by PKA (Ser39/Ser40)
Assay: PK-LDH coupled enzyme assay, IC50 at […] choline converted to Ki
Format: biochemical

T1 sequence (Q9Y259 2-395): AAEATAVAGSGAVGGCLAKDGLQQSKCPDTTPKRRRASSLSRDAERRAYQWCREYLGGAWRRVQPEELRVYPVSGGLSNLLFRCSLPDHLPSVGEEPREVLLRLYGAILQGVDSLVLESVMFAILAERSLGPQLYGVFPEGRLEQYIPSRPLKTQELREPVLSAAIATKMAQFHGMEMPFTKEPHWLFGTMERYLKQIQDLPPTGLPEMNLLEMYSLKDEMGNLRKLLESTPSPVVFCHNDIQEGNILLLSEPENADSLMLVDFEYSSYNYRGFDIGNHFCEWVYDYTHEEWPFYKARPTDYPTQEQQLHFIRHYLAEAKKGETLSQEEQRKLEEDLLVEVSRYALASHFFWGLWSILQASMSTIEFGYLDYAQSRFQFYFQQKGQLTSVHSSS

C[N+]1(C)CCOC(O)(c2ccc(-c3ccc(C4(O)C[N+](C)(C)CCO4)cc3)cc2)C1 (stereo not shown) [HC-3, Hemicholinium-3]
pKi: 5.33
